“Also recorded” adds a separate entry of the source.
Columns and labels:
[1] = tested on: RANKL-stimulated RAW264.7 cells; test: Resorption assay on bone resorption assay plate (calcium phosphate substrate); type: cell-based, Mouse; conditions: for Ave of Resorbed Area per Filed (%): RANKL 100 ng/mL + compound 400 nM, 7 days, Control 0.00, RANKL alone 1.14; for effect on resorption areas: RANKL + compound 400 nM
Procedure: RAW264.7 cells were plated on synthesized calcium phosphate substrate (bone resorption assay plate; PG Research, Tokyo, Japan) and stimulated with RANKL in the presence or absence of test compounds. After 7 days of cultivation, cells were removed with bleach, and the calcium phosphate substrate was washed with distilled water and then dried. Photographs were taken, and the average of the resorbed area per field was calculated from 12 images of each sample, using ImageJ software (National Institutes of Health, Bethesda).

[2] = tested on: RANKL-mediated osteoclastogenesis in RAW264.7 cells; test: Osteoclastogenesis assay: TRAP staining of RANKL-stimulated RAW264.7 cells; type: cell-based, Mouse; conditions: for No. of TRAP-positive multinucleated cells (Cells/Well): RANKL 100 ng/mL + compound 400 nM, 4 days, Control 0.00, RANKL alone 140.00; for effect on number of TRAP-positive multinucleated cells / RANKL-mediated osteoclastogenesis: RANKL 100 ng/mL, compound 400 nM
Procedure: Cells were plated on 96-well plates (RAW264.7 cells: 10^3 cells/well) in triplicate in the presence or absence of recombinant RANKL (100 ng/ml) with or without the test compounds. After 4 days culture, cells were stained for tartrate-resistant acid phosphatase (TRAP) using an acid phosphatase kit (Sigma-Aldrich, St. Louis, Mo.). Dark red multinucleated cells (>3 nuclei) were counted as TRAP-positive multinucleated cells.

[3] = tested on: osteoclast marker genes (Atp6v0d2, Trap, Mmp9, Cathepsin K, Dcstamp, and Oscar) in RANKL-stimulated RAW 264.7 cells; test: Real-time RT-PCR of osteoclast marker gene expression; type: cell-based, Mouse; conditions: RAW264.7 cells, RANKL + compound 400 nM; for Dcstamp Fold Change from Control (Ave) / ATP6vd2 Fold Change from Control (Ave) / Cathepsin K Fold Change from Control (Ave) / Oscar Fold Change from Control (Ave) / Mmp9 Fold Change from Control (Ave) / TRAP Fold Change from Control (Ave): 4 days; for Dcstamp Fold Change from Control (Ave): Control 1.00, RANKL alone 4.32; for ATP6vd2 Fold Change from Control (Ave): Control 1.00, RANKL alone 4.69; for Cathepsin K Fold Change from Control (Ave): Control 1.00, RANKL alone 7.83; for Oscar Fold Change from Control (Ave): Control 1.00, RANKL alone 23.88; for Mmp9 Fold Change from Control (Ave): Control 1.00, RANKL alone 42.90; for TRAP Fold Change from Control (Ave): Control 1.00, RANKL alone 132.47
Procedure: (§1) RNA was extracted from RAW264.7 cells using the GenElute mammalian total RNA Miniprep kit (Sigma-Aldrich, St. Louis, Mo.) with on-column genomic DNA digestion according to the manufacturer's instructions. For antioxidant gene expression analysis, RNA was extracted at 1 day after test compound treatment, and the gene expressions of HMOX1 and NQO1 was analyzed. For osteoclast marker gene expression analysis, RNA was extracted at 4 days after RANKL stimulation, and the gene expressions of Atp6v0d2, Cathepsin K, Matrix metalloproteinase 9, Trap, Dcstamp, and Oscar were analyzed. After measurement of the RNA concentration, isolated RNA (500 ng each) was reverse transcribed with iScript cDNA-Supermix (Bio-Rad Laboratories, Hercules, Calif.). Real-time RT-PCR was performed with SsoFast EvaGreen-Supermix (Bio-Rad Laboratories). PCR primers used in the experiments were from PrimerBank and were described in H. Kanzaki, et al. “The Keap1/Nrf2 protein axis plays a role in osteoclast differentiation by regulating intracellular reactive oxygen species signaling,” The Journal of Biological Chemistry 288(32) (2013) 23009-20. Fold changes of gene of interest were calculated by using the […] method with ribosomal protein S18 as reference gene. Data shown are representative of 3 independent experiments performed in triplicate.

[4] = tested on: HMOX1 and NQO1 in RAW264.7 cells; test: Real-time RT-PCR of antioxidant gene expression; type: cell-based, Mouse; conditions: 400 nM
Procedure: as §1

[5] = tested on: RANKL-triggered intracellular ROS production in RAW264.7 cells; test: Intracellular ROS detection by flow cytometry (BES-So-AM); type: cell-based, Mouse; conditions: pretreated 1 h, RANKL 6 h
Procedure: Cells were pretreated with or without Compound HPP-4 for 1 h, stimulated with soluble RANKL for 6 h, washed with PBS, and collected. Cells were then incubated with fluorescent superoxide probe (BES-So-AM; Wako Pure Chemical) on ice. After washing, intracellular ROS was detected using an AccuriC6 flow cytometer (BD Biosciences, San Jose, Calif., USA). The viable monocyte/macrophage fraction was gated on a forward scatter/side scatter plot, and ROS levels were monitored in the FL-1 channel. Data shown are representative of 3 independent experiments performed in triplicated.

[6] = tested on: LPS-mediated bone destruction in mice calvaria; test: In vivo bone destruction model (LPS-induced calvarial bone destruction, μCT); set-up: species or system BALB/c mice
Procedure: The animal experimental protocol was reviewed and approved by the Institutional Animal Care and Use committee, Tsurumi University (approval number; 28A030). All animals were treated ethically, and animal experiments were performed in compliance with the Regulations for Animal Experiments and Related Activities at Tsurumi University. The calvarial bone destruction mouse model, induced by repeated LPS injections. Twenty 7-week-old male BALB/c mice (Clea Japan, Tokyo, Japan) were used. Mice were randomly assigned to four groups (n=5 each): a Dimethyl sulfoxide (DMSO)-injected group (control group; 10 μl PBS+2 μl DMSO), a HPP-4-injected group (HPP-4 group; 10 μl PBS+2 μl of Cpd. HPP-4 2 μM), an LPS-induced bone resorption group (LPS group; 10 μl of 1 μg/μl LPS+2 μl DMSO) and an LPS-induced bone resorption and Cpd. HPP-4-injected group (LPS+HPP-4 group; 10 μl of 1 μg/μl LPS+2 μl of HPP-4 2 μM), Injections were performed under anaesthesia with a 30-gauge needle at a point on the midline of the skull located between the eyes on days 1, 3, 5, 7, and 9. On day 11, mice were sacrificed by cervical dislocation and cranial tissue samples were fixed overnight with 4% paraformaldehyde in PBS.
Fixed cranial tissue samples were subsequently scanned with an X-ray microcomputed tomography […] system (inspeXio SMX-225CT; Shimadzu Corp., Kyoto, Japan). After reconstitution, the DICOM files were rendered into three-dimensional images using Pluto software. Percentage of resorbed area, calculated from the ratio of the number of pixels in the resorbed area in the cranial bone to the number of pixels in the total analyzed image of the cranial bone, was calculated with the ImageJ software. The region of interest was set between the fronto-parietal (coronal) suture and parietooccipital (lambdoidal) suture.

| SMILES | Ave of Resorbed Area per Filed (%) [1] | No. of TRAP-positive multinucleated cells (Cells/Well) [2] | effect on number of TRAP-positive multinucleated cells / RANKL-mediated osteoclastogenesis [2] | RANKL-mediated upregulation of osteoclast marker genes [3] | difference from RANKL alone in Atp6v0d2, Mmp9, and Oscar expression [3] | Dcstamp Fold Change from Control (Ave) [3] | ATP6vd2 Fold Change from Control (Ave) [3] | Cathepsin K Fold Change from Control (Ave) [3] | Oscar Fold Change from Control (Ave) [3] | Mmp9 Fold Change from Control (Ave) [3] | TRAP Fold Change from Control (Ave) [3] | effect on resorption areas [1] | HMOX1 Fold Change from Control (Ave) ([4]; 1 day, Control 1.00) | NQO1 Fold Change from Control (Ave) ([4]; 1 day, Control 1.00) | expression of antioxidant enzymes NQO1 and HMOX1 ([4]; p<0.05 relative to control) | RANKL-mediated increase in intracellular ROS (superoxide) [5] | LPS-mediated bone destruction ([6]; local injection of HPP-4, μCT) | Percent Resorbed (%), HPP-4 alone ([6]; local injection of HPP-4 without LPS on days 1, 3, 5, 7, 9, μCT day 11, Control 0.15) | Percent Resorbed (%), LPS + HPP-4 ([6]; local injection of LPS + HPP-4 on days 1, 3, 5, 7, 9, μCT day 11, Control 0.15, LPS alone 4.27) |
| --- | --- | --- | --- | --- | --- | --- | --- | --- | --- | --- | --- | --- | --- | --- | --- | --- | --- | --- | --- |
| COCCNC(=O)c1cnc2c(c1)nc(Nc1nc3ccc(OC(F)(F)F)cc3s1)n2C [HPP-1, 3-Methyl-2-(6-trifluoromethoxy-benzothiazol-2-ylamino)-3H-imidazo[4,5-b]pyridine-6-carboxylic acid (2-methoxy-ethyl)-amide] | 1.21% | 139.33 Cells/Well | no effect | weak suppression | no significant differences | 3.33 Fold Change from Control | 3.52 Fold Change from Control | 5.96 Fold Change from Control | 20.22 Fold Change from Control | 39.73 Fold Change from Control | 106.62 Fold Change from Control |  |  |  |  |  |  |  |  |
| CN(C)C(=O)CNC(=O)c1ccc2c(c1)nc(Nc1nc3ccc(C(F)(F)F)cc3s1)n2C [HPP-2, 1-Methyl-2-(6-trifluoromethyl-benzothiazol-2-ylamino)-1H-benzimidazole-5-carboxylic acid dimethylcarbamoylmethyl-amide] | 0.78% | 97.67 Cells/Well | no effect | suppressed |  | 2.55 Fold Change from Control | 3.09 Fold Change from Control | 4.42 Fold Change from Control | 10.03 Fold Change from Control | 24.02 Fold Change from Control | 73.81 Fold Change from Control |  |  |  |  |  |  |  |  |
| C[C@H](O)CNC(=O)c1ccc2c(c1)nc(Nc1nc3ccc(OC(F)(F)F)cc3s1)n2C [HPP-3, 1-Methyl-2-(6-trifluoromethoxy-benzothiazol-2-ylamino)-1H-benzoimidazole-5-carboxylic acid ((S)-2-hydroxy-propyl)-amide] | 0.22% | 65.00 Cells/Well | decreased | suppressed |  | 2.14 Fold Change from Control | 2.36 Fold Change from Control | 3.31 Fold Change from Control | 6.45 Fold Change from Control | 23.89 Fold Change from Control | 59.23 Fold Change from Control | reduced the resorption areas such that there was no significant difference from control |  |  |  |  |  |  |  |
| Cn1c(Nc2nc3ccc(C(F)(F)F)cc3s2)nc2cc(C(=O)NCCOCCO)ccc21 [HPP-4, 1-Methyl-2-(6-trifluoromethyl-benzothiazol-2-ylamino)-1H-benzoimidazole-5-carboxylic acid [2-(2-hydroxy-ethoxy)-ethyl]-amide] | 0.23% | 29.00 Cells/Well | decreased the number of TPAP-positive multinucleated cells to that of control | suppressed |  | 2.39 Fold Change from Control | 2.59 Fold Change from Control | 2.99 Fold Change from Control | 8.18 Fold Change from Control | 20.21 Fold Change from Control | 59.76 Fold Change from Control | reduced the resorption areas such that there was no significant difference from control | 1.62 Fold Change from Control | 2.67 Fold Change from Control | increased | inhibited | ameliorated LPS-induced bone destruction; also recorded: significantly inhibited LPS-mediated bone destruction | 0.42% | 1.84% |

Reference: patent US20210283111A1, “Methods of Inhibiting Osteoclastogenesis and Osteoclast Activity” (vTv Therapeutics LLC, priority 2018, published 2021)
